Test results as given in US7491827B2, “Aryl sulfonamides useful as inhibitors of chemokine receptor activity” (Millennium Pharmaceuticals, Inc., priority 2003, dated 2009).
Where two headings read alike, the source gives them in different places.

Target: T1, cloned human CCR8 receptor stably expressed in L1.2 cells (Homo sapiens, UniProt P51685)
T1 construct: expressed in transfected cells
Assay: whole cell binding screen: inhibition of biotinylated human I309 binding to CCR8 (FMAT 8100 HTS)
Settings: biotinylated human I-309, 10 point concentration response starting at 10 μM
Summary of the method: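 Ten-point dilutions, top 10 μM final, were tested for displacing biotin-I309 from hCCR8-transfected L1.2 cells in HEPES-buffered HBSS with BSA and sodium azide, mixing 0.5 h before FMAT 8100 detection. Signals converted to percent inhibition against untreated wells and a 100 nM excess unlabeled I309 control.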

[1] = L1.2/hCCR8 cells, read-out: Ki of compounds to inhibit I-309 binding to CCR8

T1 sequence (P51685 whole entry): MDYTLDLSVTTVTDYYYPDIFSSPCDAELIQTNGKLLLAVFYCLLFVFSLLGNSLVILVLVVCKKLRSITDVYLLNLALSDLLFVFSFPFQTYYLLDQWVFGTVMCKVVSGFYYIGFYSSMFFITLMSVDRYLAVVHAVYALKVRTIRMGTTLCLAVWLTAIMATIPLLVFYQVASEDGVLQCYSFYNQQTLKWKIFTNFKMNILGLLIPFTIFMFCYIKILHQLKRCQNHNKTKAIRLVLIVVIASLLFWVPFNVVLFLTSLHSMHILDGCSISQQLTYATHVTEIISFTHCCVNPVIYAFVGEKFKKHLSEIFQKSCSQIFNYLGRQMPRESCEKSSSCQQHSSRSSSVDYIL

SMILES	Ki [1] [nM]	Ki (Ki of compounds to inhibit I-309 binding to CCR8, L1.2/hCCR8 cells) [nM]
O=C(Nc1ccc(S(=O)(=O)NC2CCN(C(=O)N3CCOCC3)CC2)c2ccccc12)c1ccccc1 [Compound C-4, N-{4-[1-(Morpholine-4-carbonyl)-piperidin-4-ylsulfamoyl]-naphthalen-1-yl}-benzamide]	< 500	–
CCNC(=O)N1CCC(NS(=O)(=O)c2ccc(C(=O)Nc3ccccc3C)c3ccccc23)CC1 [Compound F-10, 4-(4-o-Tolylcarbamoly-naphthalene-1-sulfonylamino)-piperidine-1-carboxylic acid ethylamide]	–	< 500
Cc1ccccc1C(=O)Nc1ccc(S(=O)(=O)NC2CCN(C(=O)[C@@H]3CCCN3C)CC2)c2ccccc12 [Compound C-124, (S)-2-Methyl-N-{4-[1-(1-methyl-pyrrolidine-2-carbonyl)-piperidin-4-ylsulfamoyl]-naphthalen-1-yl}-benzamide]	< 500	–
CCOC(=O)N1CCC(NS(=O)(=O)c2ccc(NC(=O)c3cccc(C)c3C)c3ccccc23)CC1 [Compound B-27]	< 500	–
Cc1ccccc1C(=O)Nc1ccc(S(=O)(=O)N[C@@H]2[C@H](C)CN(C(=O)N3CCCCC3)C[C@@H]2C)c2ccccc12 [Compound C-72, (±)-(cis,cis)-N-{4-[3,5-Dimethyl-1-(piperidine-1-carbonyl)-piperidin-4-ylsulfamoyl]-naphthalen-1-yl}-2-methyl-benzamide]	< 1000	–
CCNC(=O)N1CCC(NS(=O)(=O)c2ccc(N3C(=O)c4ccccc4C3=O)c3ccccc23)CC1 [Compound C-98, 4-[4-(1,3-Dioxo-1,3-dihydro-isoindol-2-yl)-naphthalene-1-sulfonylamino]-piperidine-1-carboxylic acid ethylamide]	< 1000	–

Further lines, with some results ahead:

Ki [1] [nM]	SMILES	Ki (Ki of compounds to inhibit I-309 binding to CCR8, L1.2/hCCR8 cells) [nM]
< 30000	CCc1ccc(NS(=O)(=O)c2cccc3c(NC(=O)c4ccccc4)cccc23)cc1 [Compound H-2, N-[5-(4-Ethyl-phenylsulfamoyl)-naphthalen-1-yl]-benzamide]	–
< 500	Cc1ccccc1C(=O)Nc1ccc(S(=O)(=O)NC2CCOCC2)c2c1CCCC2 [Compound E-23, 2-Methyl-N-[4-(tetrahydro-pyran-4-ylsulfamoyl)-5,6,7,8-tetrahydro-naphthalen-1-yl]-benzamide]	–
< 500	CCOC(=O)N1CCC(NS(=O)(=O)c2cccc3c(C(=O)NC4CCCCC4C)cccc23)CC1 (racemic) [Compound H-24, (±)-4-[5-(2-Methyl-cyclohexylcarbamoyl)-naphthalene-1-sulfonylamino]-piperidine-1-carboxylic acid ethyl ester]	–
< 500	COc1ccc(NS(=O)(=O)c2ccc3cccc(NC(=O)c4ccccc4)c3c2)cc1 [Compound H-47, N-[7-(4-Methoxy-phenylsulfamoyl)-naphthalen-1-yl]-benzamide]	–
< 500	COCC(=O)N1CCC(NS(=O)(=O)c2ccc(NC(=O)c3ccccc3C)c3c2CCCC3)CC1 [Compound E-18, N-{4-[1-(2-Methoxy-acetyl)-piperidin-4-ylsulfamoyl]-5,6,7,8-tetrahydro-naphthalen-1-yl}-2-methyl-benzamide]	–
< 30000	CN1CCCC(C(=O)Nc2ccc(S(=O)(=O)NC3CCNCC3)c3ccccc23)C1 [Compound D-22, 1-Methyl-piperidine-3-carboxylic acid [4-(piperidin-4-ylsulfamoyl)-naphthalen-1-yl]-amide]	–
< 500	CCCC(=O)N1CCC(NS(=O)(=O)c2ccc(C(=O)Nc3cccc(C)c3)c3ccccc23)CC1 [Compound F-26, 4-(1-Butyryl-piperidin-4-ylsulfamoyl)-naphthalene-1-carboxylic acid m-tolylainde]	–
< 500	CN(C)C(=O)N1CCC(NS(=O)(=O)c2ccc(C(=O)Nc3ccccc3Cl)c3ccccc23)CC1 [Compound F-23, 4-[4-(2-Chloro-phenylcarbamoyl)-naphthalene-1-sulfonylamino]-piperidine-1-carboxylic acid dimethylamide]	–
< 30000	O=C(NC1CCCCC1)c1ccc(S(=O)(=O)NC2CCNCC2)c2ccccc12 [Compound F-2, 4-(Piperidin-4-ylsulfamoyl)-naphthalene-1-carboxylic acid cyclohexylamide]	–
